This is an account of results in patent US10676429B2, “Sulfamoyl-arylamides and the use thereof as medicaments for the treatment of hepatitis B” (priority 2012, dated 2020).

Data set [1] relates to HBV. Put plainly: Anti-HBV activity in stable transfected HepG2.2.15 cell line (HBV DNA from secreted virions, realtime PCR). The format is cell-based. The settings on record: Hepatitis B virus, HepG2.2.15, 144 h, HepG2.2.15 cells, 6 days of treatment, secreted virion HBV DNA; read-out: HepG2 2.15 EC50.
A short description of data set [2]: Cytotoxicity in HepG2 cells, 4 days, Resazurin assay. The settings on record: human, HepG2 cells.
Data set [3] concerns HBV. Put plainly: Anti-HBV activity in HepG2.117 cell line (Tet-off, intracellular HBV DNA, realtime PCR). The format is cell-based. Conditions: Hepatitis B virus, HepG2.117, 72 h, HepG2.117 cells, 3 days of treatment, intracellular HBV DNA; read-out: HepG2 117 EC50.

For the compound `Cc1cc(NC(=O)c2cccc(S(=O)(=O)N[C@@H]3c4ccccc4C[C@H]3O)c2)ccc1F` [Compound 175], the EC50 stood at 230 nM with HBV [1] and 150 nM in the data set on HBV [3]. In data set [2], the CC50 at 4 days is > 25000 nM.
With `Cc1cc(NC(=O)c2cccc(S(=O)(=O)N[C@H]3c4ccccc4C[C@@H]3O)c2)ccc1F` [Compound 176], the results for the EC50 with HBV [1] and in the data set on HBV [3] were 620 nM and 560 nM, respectively. Moreover, the CC50 at 4 days in data set [2] is > 25000 nM.
The like results for `Cc1cc(NC(=O)c2cccc(S(=O)(=O)N[C@H]3c4ccccc4C[C@H]3O)c2)ccc1F` [Compound 177] were, in that order, 770 nM, 720 nM and > 25000 nM.
The like results for `Cc1cc(NC(=O)c2cccc(S(=O)(=O)N[C@@H]3CCc4ccccc4[C@H]3O)c2)ccc1F` [Compound 178] were, in that order, 750 nM, 2540 nM and > 25000 nM.
The like results for `Cc1cc(NC(=O)c2cccc(S(=O)(=O)NC3CCC(=O)N(C)C3)c2)ccc1F` (stereo not drawn) [Compound 180] were, in that order, 760 nM, 1300 nM and > 25000 nM.
With `Cc1cc(NC(=O)c2cccc(S(=O)(=O)NC3CCN(C)C3=O)c2)ccc1F` (stereo not drawn) [Compound 181], the concentration giving a half-maximal response (EC50) with HBV [1] turned out to be 2590 nM; with HBV [3], 2040 nM. Besides, in data set [2], the CC50 at 4 days is > 25000 nM.
Turning to `Cc1cc(NC(=O)c2cccc(S(=O)(=O)NC3CN(C(=O)OC(C)(C)C)C3)c2)ccc1F` [Compound 182], the EC50 in the data set on HBV [1] turned out to be 310 nM; in the data set on HBV [3] it was 880 nM. Moreover, the CC50 at 4 days in data set [2] is > 25000 nM.
For `Cc1cc(NC(=O)c2cccc(S(=O)(=O)NC3(C(F)(F)F)CC3)c2)ccc1F` [Compound 183], in that order: 80 nM, 840 nM and > 25000 nM.
`Cc1cc(NC(=O)c2cccc(S(=O)(=O)NC3CC(O)C3)c2)ccc1F` (stereo not drawn) [Compound 184]: the results for the EC50 with HBV [1] and in the data set on HBV [3] were 150 nM and 400 nM, respectively. The CC50 at 4 days in data set [2] was > 25000 nM.
Take `Cc1cc(NC(=O)c2cccc(S(=O)(=O)N[C@H]3C[C@H](O)C3)c2)ccc1F` [Compound 184a]: the EC50 with HBV [1] was found to be 310 nM; in the data set on HBV [3], 770 nM. For the same compound, the CC50 at 4 days in data set [2] is > 25000 nM.
The like results for `Cc1cc(NC(=O)c2cccc(S(=O)(=O)N[C@H]3C[C@@H](O)C3)c2)ccc1F` [Compound 184b] were, in that order, 300 nM, 330 nM and > 25000 nM.
The like results for `COC(=O)N1CC(NS(=O)(=O)c2cccc(C(=O)Nc3ccc(F)c(C)c3)c2)C1` [Compound 185] were, in that order, 220 nM, 620 nM and > 25000 nM.
The like results for `Cc1cc(NC(=O)c2cccc(S(=O)(=O)NC(C)C)c2)cc(C)c1F` [Compound 186] were, in that order, 200 nM, 1340 nM and > 25000 nM.
Turning to `Cc1ccc(S(=O)(=O)NC2(C)COC2)c(F)c1C(=O)Nc1ccc(F)c(C#N)c1` [Compound 191], the EC50 amounted to 330 nM in the data set on HBV [1] and 360 nM in the data set with HBV [3]. Besides, in data set [2], the CC50 at 4 days was > 25000 nM.
For `Cc1ccc(S(=O)(=O)NC2(C)COC2)c(F)c1C(=O)Nc1ccc(F)c(F)c1` [Compound 194], in that order: 380 nM, 310 nM and > 25000 nM.
In the case of `Cc1ccc(S(=O)(=O)NC2(C)COC2)c(F)c1C(=O)Nc1ccc(F)c(Cl)c1` [Compound 195], the EC50 in the data set on HBV [1] came to 270 nM; in the data set with HBV [3], 180 nM. The CC50 at 4 days in data set [2] is > 25000 nM.
For `O=C(Nc1ccc(F)c(F)c1)c1c(F)ccc(S(=O)(=O)N[C@H]2CCOC2)c1F` [Compound 196], in that order: 130 nM, 70 nM and > 25000 nM.
Take `O=C(Nc1ccc(F)c(Cl)c1)c1c(F)ccc(S(=O)(=O)N[C@H]2CCOC2)c1F` [Compound 201]: the EC50 in the data set with HBV [1] and in the data set on HBV [3] was 60 nM in each case. For the same compound, the CC50 at 4 days in data set [2] is > 25000 nM.
Turning to `CC1(NS(=O)(=O)c2cc(Cl)cc(C(=O)Nc3ccc(F)c(C(F)F)c3)c2F)COC1` [Compound 217], the EC50 worked out at 200 nM in the data set with HBV [1] and 600 nM with HBV [3]. Moreover, the CC50 at 4 days in data set [2] is > 25000 nM.
On to `CC1(NS(=O)(=O)c2cccc(C(=O)Nc3ccc(F)c(C(F)F)c3)c2F)COC1` [Compound 218], for which the values for the EC50 in the data set on HBV [1] and in the data set on HBV [3] were 120 nM and 100 nM, respectively. In addition, the CC50 at 4 days in data set [2] is > 25000 nM.
As to `O=C(Nc1ccc(F)c(C(F)F)c1)c1cccc(S(=O)(=O)N[C@H]2CCOC2)c1F` [Compound 220], the EC50 in the data set on HBV [1] was 110 nM; with HBV [3], 90 nM. Moreover, the CC50 at 4 days in data set [2] was > 25000 nM.
For `Cc1cc(NC(=O)c2cccc(S(=O)(=O)NC3(C)COC3)c2F)ccc1F` [Compound 222], in that order: 50 nM, 100 nM and > 25000 nM.
For `Cc1cc(NC(=O)c2cccc(S(=O)(=O)NC(C)Cc3ccncc3)c2)ccc1F` (stereo not drawn) [Compound 224], in that order: 160 nM, 760 nM and > 25000 nM.
`Cc1cc(NC(=O)c2cccc(S(=O)(=O)N[C@H](C)C(F)(F)F)c2)ccc1F` [Compound 225]: the figures for the EC50 in the data set with HBV [1] and in the data set with HBV [3] were 90 nM and 1340 nM, respectively. Besides, in data set [2], the CC50 at 4 days was > 25000 nM.
The like results for `Cc1cc(NC(=O)c2cccc(S(=O)(=O)N[C@@H](C)C(F)(F)F)c2)ccc1F` [Compound 226] were, in that order, 270 nM, 1900 nM and > 25000 nM.
For `Cc1cc(NC(=O)c2cccc(S(=O)(=O)NCC(F)F)c2)ccc1F` [Compound 227], in that order: 160 nM, 710 nM and > 25000 nM.
As to `Cc1cc(NC(=O)c2cccc(S(=O)(=O)NCC(F)(F)F)c2)ccc1F` [Compound 228], the EC50 in the data set on HBV [1] came to 170 nM; in the data set on HBV [3] it was 1190 nM. Besides, the CC50 at 4 days in data set [2] is > 25000 nM.
Consider `Cc1cc(NC(=O)c2cccc(S(=O)(=O)NC3CCC(F)(F)C3)c2)ccc1F` (stereo not drawn) [Compound 229], for which the values for the EC50 in the data set with HBV [1] and with HBV [3] were 200 nM and 490 nM, respectively. Besides, the CC50 at 4 days in data set [2] is > 25000 nM.
`Cc1cc(NC(=O)c2cc(S(=O)(=O)NC(C)C)oc2C)ccc1F` [Compound 230]: the EC50 with HBV [1] is 730 nM; with HBV [3] it was 1520 nM. In addition, the CC50 at 4 days in data set [2] is > 25000 nM.
In the case of `Cc1cc(NC(=O)c2ccc(S(=O)(=O)NC3(C)COC3)o2)ccc1F` [Compound 231], the EC50 is 210 nM with HBV [1] and 320 nM in the data set on HBV [3]. For the same compound, in data set [2], the CC50 at 4 days is > 25000 nM.
Turning to `CC1(NS(=O)(=O)c2ccc(Cl)c(C(=O)Nc3ccc(F)c(C(F)(F)F)c3)c2)COC1` [Compound 233], the EC50 in the data set with HBV [1] and with HBV [3] was > 1000 nM throughout. The CC50 at 4 days in data set [2] is > 25000 nM.
As to `CC1(NS(=O)(=O)c2ccc(Cl)c(C(=O)Nc3ccc(F)c(F)c3)c2)COC1` [Compound 234], the values for the EC50 in the data set on HBV [1] and in the data set on HBV [3] were 720 nM and 340 nM, respectively. In addition, the CC50 at 4 days in data set [2] was > 25000 nM.
Consider `CC1(NS(=O)(=O)c2ccc(Cl)c(C(=O)Nc3ccc(F)c(C(F)F)c3)c2)COC1` [Compound 235], for which the EC50 was found to be 830 nM in the data set on HBV [1] and 330 nM with HBV [3]. Further, the CC50 at 4 days in data set [2] is > 25000 nM.
